Experimental data: US9211244B2, “Method for anti-skin aging using caffeamide derivative” (CHINA MEDICAL UNIVERSITY, priority 2013, dated 2015)

Assays:
skin of white rabbit = experiment: Primary skin irritation test; format: in vivo, New Zealand white rabbit
Method: First, 20 mg (low dosage) and 80 mg or 100 mg (high dosage) of the compounds of formula (1) and formula (2) prepared in Example 1 were dissolved in 1 ml of 40% PEG-400 solution, respectively. Next, a New Zealand white rabbit was fixed on a rabbit cage and the fur on its back was clipped. A color pen was used to draw six squares (2.5 cm×2.5 cm for each square) of smearing region. The six squares were divided into keratin intact group and keratin abraded group. In the keratin abraded group, a sterile needle was used to scrape four parallel lines inside the squares on the back of the white rabbit to damage the keratin layer, but without bleeding. Low dosage and high dosage of compounds of formula (1) or formula (2) were smeared inside the squares evenly. After 24 hours, the skin of white rabbit was wiped with physiologic saline solution to remove compounds of formula (1) or formula (2). […] The observation time should be extended when the irritation was shown.
The statistical method of this test was analyzed by ANOVA (analysis of variance) and Student's t-test; p<0.05 indicates a statistical significance. Each experiment was performed over three times, and the results are shown by the standard error of the mean (mean±standard error). The results are shown in Table 7A, Table 7B, FIGS. 11a to 11d, and FIGS. 12a to 12d.

[1] = Scavenging test of DPPH free radical; format: biochemical; conditions: for Scavenging efficiency (%): 200 μM DPPH, 30 minutes
Method: DPPH (1,1-diphenyl-2-picrylhydrazyl) was used as a source of free radicals to examine the scavenging efficiency of the caffeamide derivatives prepared in Example 1 on free radicals. […] The mixtures were placed in the dark at room temperature for 30 minutes and its absorbance at 517 nm was measured by an enzyme immunoassay analyzer. In this experiment, 50 volume % propanediol was used to replace extracts and to be a control group, ascorbic acid (vitamin C) was used as a positive control group, and methanol was used to replace DPPH as the background value. The scavenging efficiency of caffeamide derivatives on free radicals was examined by the formula blow, and the results are shown in Table 2, FIG. 1a, and FIG. 1b. Scavenging efficiency(%)=[the absorbance of the control group−the absorbance of the experimental group/the absorbance of the control group]×100%.

tyrosinase = molecular target: T1, tyrosinase (Mus musculus, UniProt P11344); experiment: Activity analysis of tyrosinase in B16 cells; format: cell-based; conditions: 5 μM to 125 μM, 48 hours
T1 construct: endogenous in cells; host or cells: B16 cells
T1 sequence (P11344 19-533): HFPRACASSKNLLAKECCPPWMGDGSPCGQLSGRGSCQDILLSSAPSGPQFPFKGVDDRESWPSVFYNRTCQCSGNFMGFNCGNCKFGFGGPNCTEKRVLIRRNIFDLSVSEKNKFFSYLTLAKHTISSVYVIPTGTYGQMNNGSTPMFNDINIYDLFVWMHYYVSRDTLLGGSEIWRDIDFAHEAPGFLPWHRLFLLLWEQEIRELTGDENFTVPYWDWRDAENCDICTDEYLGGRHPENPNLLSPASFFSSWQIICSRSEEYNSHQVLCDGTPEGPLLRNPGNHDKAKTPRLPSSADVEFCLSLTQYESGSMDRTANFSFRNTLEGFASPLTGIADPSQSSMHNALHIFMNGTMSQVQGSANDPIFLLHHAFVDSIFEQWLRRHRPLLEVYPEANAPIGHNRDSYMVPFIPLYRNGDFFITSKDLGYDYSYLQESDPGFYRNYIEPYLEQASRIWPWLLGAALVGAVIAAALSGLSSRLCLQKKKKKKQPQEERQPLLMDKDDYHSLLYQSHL
Method: It has been known that tyrosinase is one of the primary protein participating in melanogenesis. In this experiment, different concentrations (5 μM to 125 μM) of the compounds of formula […] or (2) prepared in Example 1 were used to treat B16 cells (1.5×10^4) for 48 hours, and the activity of tyrosinase was analyzed by western blotting.

procollagen-1 = experiment: Promotion test of the expression of collagen, western blot; format: cell-based, human; conditions: 25 μM; UVB 40 mJ/cm^2
Method: (§1) It has been known that Smad3 protein can promote the expression level of procollagen-1, and Smad7 protein can inhibit the expression level of Smad3 protein. After cells were irradiated with UV rays, the expression levels of procollagen-1 and Smad3 protein will reduce and the expression level of Smad7 protein will increase. Therefore, in this experiment, the expression levels of intracellular procollagen-1 protein, Smad3 protein and Smad7 protein were analyzed by western blotting.
(§2) Specifically, when the concentration of the compound of formula (2) was 25 μM, the protein expression level of Smad7 was 1.1 times as compared to that of the untreated cells.

Smad7 = experiment: as above; format: cell-based, human; conditions: 25 μM; UVB 40 mJ/cm^2
Method: as §1, §2

Smad3 = experiment: as above; format: cell-based, human; conditions: 25 μM; UVB 40 mJ/cm^2
Method: as §1, §2

MMP-9 = format: cell-based, human; conditions: 10 μM; UVB 40 mJ/cm^2; 48 hours
Method: After incubating for 1 hour, the cells were irradiated by UV light (UVB with an intensity of 40 mJ/cm^2) for 15 seconds. […] After incubation in an incubator (37° C., 5% CO2) for 48 hours, the cells were collected.
The collected cells were treated with a sonication buffer (containing Na3VO4 (100 μM), phenylmethanesulfonyl fluoride (PMSFL, 100 mg/ml), leupeptin (20 mg/ml), Tris-HCl (pH 7.4, 50 μM), NaCl (37.5 μM), DL-dithiothretiol (250 μM), sodium deoxycholate (3 μM), EDTA (1 μM), SDS (0.1%), and Igepal™ CA-630 (Sigma-Aldrich, 1%)) and sonicated to rupture the cell membranes. Then, the organelles and fragments of the cells were precipitated by centrifugation, and the supernatant, which contains proteins in the cytosol was collected. Next, the obtained proteins were separated by SDS-PAGE, and transferred to a membrane by western blotting. Antibodies were used to recognize the targeted proteins, such as MMP-1, MMP-3, MMP-9, and actin. The images were recorded by a Luminescent imagination technology (LAS-4000, FUJIFILM), and the variation of the proteins expression levels were determined by a quantitative analysis software (multi Gauge 2.2, Steware Technology Inc.).

Q: For `O=C(C=Cc1ccc(O)c(O)c1)NCCc1ccc(Br)cc1` [Compound of formula (2)], which “primary irritation index (PII), mean ± standard error” value (skin of white rabbit; 20 mg, 24 hour, abraded skin) is on record?
A: The value was 0.0 ± 0.0.

Q: What about the “primary irritation index (PII), single rabbits 1-3” value (skin of white rabbit; 20 mg, 24 hour, abraded skin) of the same molecule?
A: The value was 0.

Q: What about the “primary irritation index (PII), mean ± standard error” value (skin of white rabbit; 20 mg, 24 hour, intact skin) of the same molecule?
A: Its value is 0.0 ± 0.0.

Q: And the “primary irritation index (PII), single rabbits 1-3” value (skin of white rabbit; 20 mg, 24 hour, intact skin)?
A: The value was 0.

Q: What about the “primary irritation index (PII), mean ± standard error” value (skin of white rabbit; 20 mg, 72 hour, abraded skin) of the same molecule?
A: Its value is 0.0 ± 0.0.

Q: What about the “primary irritation index (PII), single rabbits 1-3” value (skin of white rabbit; 20 mg, 72 hour, abraded skin) of the same molecule?
A: The value was 0.

Q: What about the “primary irritation index (PII), mean ± standard error” value (skin of white rabbit; 20 mg, 72 hour, intact skin) of the same molecule?
A: Its value is 0.0 ± 0.0.

Q: And the “primary irritation index (PII), single rabbits 1-3” value (skin of white rabbit; 20 mg, 72 hour, intact skin)?
A: The value was 0.

Q: What about the “primary irritation index (PII), mean ± standard error” value (skin of white rabbit; 80 mg, 24 hour, abraded skin) of the same molecule?
A: The value was 0.7 ± 0.6.

Q: And the “primary irritation index (PII), mean ± standard error” value (skin of white rabbit; 80 mg, 24 hour, intact skin)?
A: Its value is 0.0 ± 0.0.

Q: What about the “primary irritation index (PII), single rabbits 1-3” value (skin of white rabbit; 80 mg, 24 hour, intact skin) of the same molecule?
A: Its value is 0.

Q: What about the “primary irritation index (PII), mean ± standard error” value (skin of white rabbit; 80 mg, 72 hour, abraded skin) of the same molecule?
A: Its value is 0.3 ± 0.6.

Q: What about the “primary irritation index (PII), mean ± standard error” value (skin of white rabbit; 80 mg, 72 hour, intact skin) of the same molecule?
A: Its value is 0.0 ± 0.0.

Q: And the “primary irritation index (PII), single rabbits 1-3” value (skin of white rabbit; 80 mg, 72 hour, intact skin)?
A: Its value is 0.

Q: What about the “Scavenging efficiency (%)” value ([1]; 1 μM) of the same molecule?
A: The value was 6.4 ± 4.9%.

Q: What about the “Scavenging efficiency (%)” value ([1]; 5 μM) of the same molecule?
A: The value was 12.9 ± 3.5%.

Q: And the “Scavenging efficiency (%)” value ([1]; 10 μM)?
A: Its value is 26.5 ± 0.9%.

Q: And the “Scavenging efficiency (%)” value ([1]; 25 μM)?
A: Its value is 62.1 ± 2.9%.

Q: And the “Scavenging efficiency (%)” value ([1]; 50 μM)?
A: The value was 96.6 ± 0.4%.

Q: What about the EC50 ([1]; DPPH free radical scavenging, read-out: SC50 (the source's name)) of the same molecule?
A: The EC50 was 20 ± 1 µM.

Q: What about the “activity of the tyrosinase in the cells” value (tyrosinase) of the same molecule?
A: Its value is “inhibited”.

Q: And the “protein expression level of procollagen-1 decreased by UVB, reversed to” value (procollagen-1)?
A: Its value is 0.4 times.

Q: And the “protein expression level of Smad7 as compared to that of the untreated cells” value (Smad7)?
A: Its value is 1.1 times.

Q: And the “protein expression level of Smad3 inhibited by UVB, reversed to” value (Smad3)?
A: The value was 0.5 times.

Q: What about the “expression level of MMP-9 as compared to that of the untreated cells” value (MMP-9) of the same molecule?
A: Its value is 0.7 times.
